# Laboratory results published in patent US20060069132A1, “Azolecarboxamide herbicides” (priority 2004, published 2006).
# Tests used:
# cocklebur = experiment: Test B pre-/postemergence herbicide test; type: in vivo, Xanthium strumarium; conditions: for Plant response rating, Cocklebur: preemergence; for Cocklebur plant response rating: postemergence, visual rating, scale 0 (no effect) to 100 (complete control)
# Method in brief: (§1)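 Response was scored visually 13 to 15 days after treatment against untreated greenhouse controls, 0 meaning no effect and 100 complete control. Formulations (solvent mixture plus surfactant) went onto soil after planting, onto foliage of 1- to 4-leaf plants, and onto 2-leaf plants in a flooded paddy set including rice and barnyardgrass.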
# velvetleaf [1] = experiment: Test A pre-/postemergence herbicide test; type: in vivo, Abutilon theophrasti
# Method in brief: (§2)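 Visual injury scores on a 0–100 scale (100 = complete control) taken about ten days post-treatment in greenhouse against untreated controls; dash means no result. Treatments: preemergence soil spray and postemergence spray to runoff on one- to two-leaf plants 2 to 10 cm tall, surfactant-containing formulation.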
# blackgrass = experiment: Test B postemergence herbicide test; type: in vivo, Alopecurus myosuroides; conditions: postemergence, visual rating, scale 0 (no effect) to 100 (complete control)
# Method in brief: (§3)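 Visual control ratings, 0–100 versus untreated controls, taken after 13 to 15 days in the greenhouse. Blackgrass received a postemergence spray at the 1- to 4-leaf stage (2–18 cm); ducksalad, umbrella sedge and barnyardgrass were flooded-paddy treated at 2 leaves.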
# velvetleaf [2] = experiment: Test B pre-/postemergence herbicide test; type: in vivo, Abutilon theophrasti; conditions: for Plant response rating, Velvetleaf: preemergence; for Velvetleaf plant response rating: postemergence, visual rating, scale 0 (no effect) to 100 (complete control)
# Method in brief: (§4)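 Formulation: non-phytotoxic solvent mix with surfactant. Timing: preemergence on seed and postemergence on 2–18 cm plants, applied concurrently. Readout after 13–15 d greenhouse: visual 0–100 control rating against controls.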
# corn = experiment: Test B pre-/postemergence herbicide test; type: in vivo, Zea mays; conditions: for Plant response rating, Corn: preemergence; for Corn plant response rating: postemergence, visual rating, scale 0 (no effect) to 100 (complete control)
# Method in brief: as §4
# redroot pigweed = experiment: Test A pre-/postemergence herbicide test; type: in vivo, Amaranthus retroflexus
# Method in brief: as §2
# morningglory [3] = experiment: Test B pre-/postemergence herbicide test; type: in vivo, Ipomoea coccinea; conditions: for Plant response rating, Morningglory: preemergence; for Morningglory plant response rating: postemergence, visual rating, scale 0 (no effect) to 100 (complete control)
# Method in brief: as §1
# morningglory [4] = experiment: Test A pre-/postemergence herbicide test; type: in vivo, Ipomoea spp.
# Method in brief: as §2
# wild oat = experiment: Test B postemergence herbicide test; type: in vivo, Avena fatua; conditions: postemergence, visual rating, scale 0 (no effect) to 100 (complete control)
# Method in brief: (§5)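 After treating 2-leaf paddy plants or 2–18 cm postemergence plants (1 to 4 leaves) with formulated chemical, researchers kept them in a greenhouse for 13–15 days. Effects were judged visually versus controls: 0 indicates none, 100 total control.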
# barnyardgrass [5] = experiment: Test A pre-/postemergence herbicide test; type: in vivo, Echinochloa crus-galli
# Method in brief: as §2
# barnyardgrass [6] = experiment: Test B pre-/postemergence herbicide test; type: in vivo, Echinochloa crus-galli; conditions: for Plant response rating, Barnyardgrass: preemergence; for Barnyardgrass plant response rating: postemergence, visual rating, scale 0 (no effect) to 100 (complete control)
# Method in brief: as §1
# barnyardgrass [7] = experiment: Test B flooded paddy test; type: in vivo, Echinochloa crus-galli; conditions: 1000 g ai/ha, visual rating, scale 0 to 100 (0 no effect, 100 complete control), 13 to 15 days
# Method in brief: as §3
# rice [8] = experiment: Test B flooded paddy test; type: in vivo, Oryza sativa; conditions: 1000 g ai/ha, visual rating, scale 0 to 100 (0 no effect, 100 complete control), 13 to 15 days
# Method in brief: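 Scale 0–100: zero equals no visible effect, 100 complete control, judged by eye relative to controls. Timing: 13 to 15 days in greenhouse post-treatment. Growth stage at spraying: two leaves (paddy) or one to four leaves, 2–18 cm (postemergence).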
# Surinam grass = experiment: Test B pre-/postemergence herbicide test; type: in vivo, Urochloa decumbens; conditions: for Plant response rating, Surinam Grass: preemergence; for Surinam Grass plant response rating: postemergence, visual rating, scale 0 (no effect) to 100 (complete control)
# Method in brief: as §4
# giant foxtail [9] = experiment: Test B pre-/postemergence herbicide test; type: in vivo, Setaria faberi; conditions: for Plant response rating, Foxtail, Giant: preemergence; for Foxtail, Giant plant response rating: postemergence, visual rating, scale 0 (no effect) to 100 (complete control)
# Method in brief: as §4
# rice [10] = experiment: Test B pre-/postemergence herbicide test; type: in vivo, Oryza sativa; conditions: preemergence
# Method in brief: as §4
# lambsquarters = experiment: Test B pre-/postemergence herbicide test; type: in vivo, Chenopodium album; conditions: for Plant response rating, Lambsquarters: preemergence; for Lambsquarters plant response rating: postemergence, visual rating, scale 0 (no effect) to 100 (complete control)
# Method in brief: as §4
# large crabgrass [11] = experiment: Test B pre-/postemergence herbicide test; type: in vivo, Digitaria sanguinalis; conditions: for Plant response rating, Crabgrass, Large: preemergence; for Crabgrass, Large plant response rating: postemergence, visual rating, scale 0 (no effect) to 100 (complete control)
# Method in brief: as §4
# [12] = tested on: small flower umbrella sedge; experiment: Test B flooded paddy test; type: in vivo, Cyperus difformis; conditions: 1000 g ai/ha, visual rating, scale 0 to 100 (0 no effect, 100 complete control), 13 to 15 days
# Method in brief: as §3
# pigweed = experiment: Test B pre-/postemergence herbicide test; type: in vivo, Amaranthus retroflexus; conditions: for Plant response rating, Pigweed: preemergence; for Pigweed plant response rating: postemergence, visual rating, scale 0 (no effect) to 100 (complete control)
# Method in brief: as §4
# ducksalad = experiment: Test B flooded paddy test; type: in vivo, Heteranthera limosa; conditions: 1000 g ai/ha, visual rating, scale 0 to 100 (0 no effect, 100 complete control), 13 to 15 days
# Method in brief: as §3
# large crabgrass [13] = experiment: Test A pre-/postemergence herbicide test; type: in vivo, Digitaria sanguinalis
# Method in brief: as §2
# wheat = experiment: Test B postemergence herbicide test; type: in vivo, Triticum aestivum; design: key to Wheat plant response rating: 0 = no effect, 100 = complete control; conditions: postemergence, 500 g ai/ha; visual rating, scale 0 (no effect) to 100 (complete control)
# Method in brief: as §5
# giant foxtail [14] = experiment: Test A pre-/postemergence herbicide test; type: in vivo, Setaria faberi
# Method in brief: as §2
# [15] = 500 g ai/ha, visual rating 0-100, 0 no effect, 100 complete control
# [16] = 125 g ai/ha, 0 to 100 scale, 0 is no effect, 100 is complete control
# [17] = Postemergence, 500 g ai/ha, 0 to 100 scale, 0 no effect, 100 complete control
# [18] = Postemergence, 2000 g ai/ha, 0 to 100 scale, 0 no effect, 100 complete control
# [19] = Preemergence, 2000 g ai/ha, visual rating, 0 to 100 scale (0 no effect, 100 complete control)
# [20] = preemergence, 500 g ai/ha, visual injury, 0 to 100 scale (0 no effect, 100 complete control)
# [21] = Preemergence, 500 g ai/ha, visual rating, 0 to 100 scale (0 no effect, 100 complete control)
compound,measurement,setting,value
CCn1nc(C(C)(C)C)cc1C(=O)Nc1cc(C(=O)NC(C)(C)C)ccn1 [Compound 154],"Plant response rating, Cocklebur",cocklebur; [15],10
same,Cocklebur plant response rating,cocklebur; 125 g ai/ha,60
same,Cocklebur plant response rating,cocklebur; 500 g ai/ha,70
same,"Plant response rating, Cocklebur",cocklebur; [16],0
same,Velvetleaf plant response rating,velvetleaf [1]; [17],10
same,"Plant response rating, Velvetleaf",velvetleaf [1]; [18],30
same,Velvetleaf plant response rating,velvetleaf [1]; [19],60
same,Velvetleaf plant response rating,velvetleaf [1]; [20],15
same,Blackgrass plant response rating,blackgrass; 125 g ai/ha,10
same,Blackgrass plant response rating,blackgrass; 500 g ai/ha,10
same,"Plant response rating, Velvetleaf",velvetleaf [2]; [15],70
same,Velvetleaf plant response rating,velvetleaf [2]; 125 g ai/ha,20
same,Velvetleaf plant response rating,velvetleaf [2]; 500 g ai/ha,60
same,"Plant response rating, Velvetleaf",velvetleaf [2]; [16],70
same,"Plant response rating, Corn",corn; [15],0
same,Corn plant response rating,corn; 125 g ai/ha,10
same,Corn plant response rating,corn; 500 g ai/ha,20
same,"Plant response rating, Corn",corn; [16],0
same,Pigweed plant response rating,redroot pigweed; [17],90
same,"Plant response rating, Pigweed",redroot pigweed; [18],100
same,Pigweed plant response rating,redroot pigweed; [19],100
same,Pigweed plant response rating,redroot pigweed; [20],85
same,"Plant response rating, Morningglory",morningglory [3]; [15],0
same,Morningglory plant response rating,morningglory [3]; 125 g ai/ha,60
same,Morningglory plant response rating,morningglory [3]; 500 g ai/ha,70
same,"Plant response rating, Morningglory",morningglory [3]; [16],0
same,Morningglory plant response rating,morningglory [4]; [17],20
same,"Plant response rating, Morningglory",morningglory [4]; [18],40
same,Morningglory plant response rating,morningglory [4]; [21],10
same,Morningglory plant response rating,morningglory [4]; [19],30
same,"Oat, Wild plant response rating",wild oat; 125 g ai/ha,10
same,"Oat, Wild plant response rating",wild oat; 500 g ai/ha,30
same,Barnyardgrass plant response rating,barnyardgrass [5]; [17],50
same,"Plant response rating, Barnyardgrass",barnyardgrass [5]; [18],90
same,Barnyardgrass plant response rating,barnyardgrass [5]; [21],30
same,Barnyardgrass plant response rating,barnyardgrass [5]; [19],95
same,"Plant response rating, Barnyardgrass",barnyardgrass [6]; [15],80
same,Barnyardgrass plant response rating,barnyardgrass [6]; 125 g ai/ha,20
same,Barnyardgrass plant response rating,barnyardgrass [6]; 500 g ai/ha,50
same,"Plant response rating, Barnyardgrass",barnyardgrass [6]; [16],10
same,Barnyardgrass plant response rating,barnyardgrass [7],50
same,Rice plant response rating,rice [8],20
same,"Plant response rating, Surinam Grass",Surinam grass; [15],10
same,Surinam Grass plant response rating,Surinam grass; 125 g ai/ha,30
same,Surinam Grass plant response rating,Surinam grass; 500 g ai/ha,60
same,"Plant response rating, Surinam Grass",Surinam grass; [16],0
same,"Plant response rating, Foxtail, Giant",giant foxtail [9]; [15],30
same,"Foxtail, Giant plant response rating",giant foxtail [9]; 125 g ai/ha,10
same,"Foxtail, Giant plant response rating",giant foxtail [9]; 500 g ai/ha,20
same,"Plant response rating, Foxtail, Giant",giant foxtail [9]; [16],0
same,"Plant response rating, Rice",rice [10]; [15],0
same,"Plant response rating, Rice",rice [10]; [16],0
same,"Plant response rating, Lambsquarters",lambsquarters; [15],90
same,Lambsquarters plant response rating,lambsquarters; 125 g ai/ha,80
same,Lambsquarters plant response rating,lambsquarters; 500 g ai/ha,90
same,"Plant response rating, Lambsquarters",lambsquarters; [16],70
same,"Plant response rating, Crabgrass, Large",large crabgrass [11]; [15],80
same,"Crabgrass, Large plant response rating",large crabgrass [11]; 125 g ai/ha,10
same,"Crabgrass, Large plant response rating",large crabgrass [11]; 500 g ai/ha,20
same,"Plant response rating, Crabgrass, Large",large crabgrass [11]; [16],50
same,"Sedge, Umbrella plant response rating",[12],20
same,"Plant response rating, Pigweed",pigweed; [15],100
same,Pigweed plant response rating,pigweed; 125 g ai/ha,20
same,Pigweed plant response rating,pigweed; 500 g ai/ha,80
same,"Plant response rating, Pigweed",pigweed; [16],90
same,Ducksalad plant response rating,ducksalad,80
same,"Crabgrass, Large plant response rating",large crabgrass [13]; [17],20
same,"Plant response rating, Crabgrass, Large",large crabgrass [13]; [18],30
same,"Crabgrass, Large plant response rating",large crabgrass [13]; [21],25
same,"Crabgrass, Large plant response rating",large crabgrass [13]; [19],85
same,Wheat plant response rating,wheat,10
same,"Foxtail, Giant plant response rating",giant foxtail [14]; [17],20
same,"Plant response rating, Foxtail, Giant",giant foxtail [14]; [18],20
same,"Foxtail, Giant plant response rating",giant foxtail [14]; [21],20
same,"Foxtail, Giant plant response rating",giant foxtail [14]; [19],70
